Here are results for 1 compound from patent US4080466A, “Pharmaceutical compositions containing 4-hydroxyl-1,3-dithiolan-2-ylidene malonates” (Nihon Nohyaku Co., Ltd., priority 1976, dated 1978).

The subject of assay [1] is acute liver damage induced by carbon tetrachloride. Description: Protective Effect on Acute Liver Damage associated with Centrilobular Necrosis (carbon tetrachloride). It counts as in vivo, mice (dd-strain). To be noted: 250 mg/kg oral, average of 5 to 6 mice. The text has this:
Carbon tetrachloride (CCl4) administration induces centrilobular necrosis of the liver associated with loss of diphosphopyridine nucleotide, hepatic glycogen, coenzyme A and increase in neutral fat. Release of several enzymes from the hepatocytes, and increase of enzyme activities in the plasma are recognized as the result of the damage of the liver. A suitable means for evaluating the degree of damage induced by CCl4 or the degree of protection afforded by drugs is to study the plasma glutamic-pyruvic transminase (p-GPT) activity.
Methods: The test compounds were dissolved or suspended in olive oil and administered orally at the dose of 250 mg/kg to the mice (Four-week-old male mice-dd strain). After 6 hours, CCl4 was administered orally (0.05 ml/kg as olive oil solution). Animals were killed 24 hours after CCl4 administration, and the liver was grossly observed. The plasma was obtained by centrifugation. Activities of p-GPT were determined by the method of Reitman and Frankel and expressed in Karmen units.
Score for liver damage index was as follows:
4 Clearly observable damage
Each figure indicates average of 5 to 6 mice. Values of p-GPT over 1,000 Karmen unit regarded as 1,000 for calculation of average for convenience.

Assay [2] has as its system chronic liver damage induced by thioacetamide. Description: Therapeutic Effect on Chronic Liver Damage (thioacetamide), BSP test. To be noted: normal diet + 0.2% of compound after 12 times TAA 100 mg/kg. In kind it is in vivo, rats (Spraque Dawley strain). How it is done:
In the tests of this Example, TAA was repeatedly administered to animals to prepare test animals suffering from somewhat chronic liver damages, and then the present compounds were administered thereto to know whether or not the compounds were effective against chronic hepatitis.
The degree of the liver damage and the therapeutic effects of the compounds were evaluated according to BSP test. The BSP test is a method in which BSP (sulfobromophthalein sodium), a dye known to be quickly metabolized in and excreted from the liver, is intravenously injected into animals and, after a definite period of time, the blood is taken out to measure the amount of BSP remaining in the plasma. In case the animals are suffering from the lever damage, the dye will remain, according to the degree of the damage, at the stage where a major portion of BSP metabolized and excreted in the case of normal animals.
Five groups of rats (Spraque Dawley strain) were treated as follows:
Group A: The rats were orally administered with 100 mg/kg of thioacetamide,at 3 days intervals for 36 days (12 times of the administration), then were submitted for 10 days to a normal diet.
Group B: The rats were orally administered with 100 mg/kg of thioacetamide at 3 days intervals for 36 days (12 times of the administration), then were submitted for 10 days to the normal diet + 0.2% of compound 4.
Group C: The rats were orally administered with 100 mg/kg of thioacetamide at 3 days intervals for 36 days (12 times of the administration), then were submitted for 10 days to the normal diet + 0.2% of compound 2.
Group D: The rats were orally administered with 100 mg/kg of thioacetamide at 3 days intervals for 36 days (12 times of the administration), then were submitted for 10 days to the normal diet + 0.2% of anethol trithion.
Group E: The rats were submitted to the normal diet as the control.
Five rats were sacrificed from each group at appropriate intervals for BSP (sulfobromophthalein) test, the results of which were shown as amounts (mg) of BSP remaining in 1 dl of plasma.

In assay [3] the test system is acute liver damage induced by allyl alcohol. In words: Protective Effect on Acute Liver Damage associated with Periportal Necrosis (allyl alcohol), BSP test. It counts as in vivo, mouse (dd-strain). The note with it: 100 mg/kg oral, 6 h before allyl alcohol (0.075 mg/kg oral); 24 h. Here is the method: The compund of this invention or anethol trithion was orally administered to the male mouse (4 week-old, dd-strain) at the dose of 100 mg/kg. Six hours after it, allyl alcohol was orally administered at the dose of 0.075 mg/kg. Twenty four hours after it, the animals were sacrificed to collect blood samples.

Assay [4] has as its system acute hepatitis induced by D-galactosamine. In words: Protective Effect on Acute Hepatitis associated with Mesenchymal Reaction and Discrete Lobular Necrosis (D-galactosamine). It counts as in vivo, rat (SD strain). To be noted: 100 mg/kg oral, 6 h before D-galactosamine 600 mg/kg i.p. (+ 300 mg/kg). Here is the method:
D-Galactosamine is a compound which induces a discrete lobular necrosis associated with mesenchymal reaction similar to the change observed in human viral hepatitis, so that it is frequently used in producing a model for viral hepatitis.
The compound of this invention or anethol trithion was administered orally to the male rat (SD strain) at the dose of 100 mg/kg. Six hours after it, D-galactosamine was intraperitoneally administered at the dose of 600 mg/kg. Four hours after it, an additional 300 mg/kg was administered intraperitoneally. Eight hours after it, the animals were sacrificed to collect the blood samples. P-GPT activity and triglyceride in the liver were measured to evaluate the effect of the compound of this invention.

A further assay deals with bile flow. In words: Cholagogic Action: effect on bile flow. It counts as in vivo, rats (SD-JCL strain). The note with it: 200 mg/kg oral; for Bile flow: before treatment = 100. Here is the method: (§1) Drugs as choleresis are used for patients to improve bile flow. In the present example, the effect of the compound of the invention on the quantities of bile and biliary salt is investigated. Methods:
(§2) The male rats (4 week-aged, SD-JCL strain) were anesthetized with sodium pentobarbital (37.5 mg/kg, intraperitoneal injection). The abdominal cavity was opened through a midline incision. The common bile duct was catheterized with polyethylene tube o.d. 0.8 mm. The catheter was brought to the outside through the abdominal incision would prior to closing. Bile was collected from the catheter continuously with time intervals of one hour. The quantity of bile produced in one hour was determined by weighing and that of biliary salt was determined by enzymatic method (Ikagaku Jikkenho Koza 1B, Biological Constituents II, edited by Tamio YAMAKAWA). The amount of biliary salt was represented in the term of cholic acid equivalent.
(§3) In the representation of the results, the quantities of bile and biliary salt produced in one hour prior to the administration of drug were taken as 100. The compound of this invention was orally administered at the dose of 200 mg/kg. As reference, anethol trithion was used.

Assay [5] deals with excretion of biliary salt. In words: Cholagogic Action: effect on the excretion of biliary salt. It counts as in vivo, rats (SD-JCL strain). The note with it: 200 mg/kg oral, before treatment = 100. Here is the method: as §1, §2, §3

On to `COc1ccc(-c2cc(=S)ss2)cc1` [Anethol trithion, reference compound], for which the Liver damage index in assay [1] (6 h before CCl4 (0.05 ml/kg oral), score 0 Normal, 2 slight, 4 clear, 6 heavy damage) came out at 1.6. Besides, the “p-GPT (plasma glutamic-pyruvic transaminase activity)” value in assay [1] (6 h before CCl4, 24 h after CCl4, values over 1,000 regarded as 1,000) is 38 Karmen units. Further, the “BSP remaining in plasma” value was found to be 9.7 ± 4.1 mg/dL in assay [2] (2 days), 7.3 ± 3.4 mg/dL in assay [2] (5 days) and 0.9 ± 0.1 mg/dL in assay [2] (10 days). Moreover, the “BSP (residual quantity)” value in assay [3] turned out to be 19.3 ± 4.6. In assay [4], this compound displayed a Triglyceride in liver of 9.2 ± 1.5 mg/g. Moreover, the p-GPT in assay [4] is on record as 106 ± 30 Karmen unit. Also, the Bile flow stood at 114 ± 15 in the assay with bile flow (1 hour after treatment); 114 ± 15 with bile flow (2 hours after treatment); 102 ± 11 in the assay on bile flow (3 hours after treatment); 95 ± 7.7 in the assay on bile flow (4 hours after treatment); 86 ± 6.6 with bile flow (5 hours after treatment). Further, the “Quantity of total excreted bile relative to control” value with bile flow (5 hours after administration) amounted to 1.10 times. In addition, the “Excretion of biliary salt” value was 108 ± 12 in assay [5] (1 hour after treatment); 89 ± 11 in assay [5] (2 hours after treatment); 66 ± 3.8 in assay [5] (3 hours after treatment); 47 ± 3.0 in assay [5] (4 hours after treatment); 3.3 ± 4.0 in assay [5] (5 hours after treatment).
